Data taken from patent US4618682A, “2-amino-4,5-dihydro-1H-imidazole-1-carboxanilides” (McNeilab, Inc., priority 1985, dated 1986).
Where a name gives a salt, the structure may show the parent alone.

Assays:
[1] = test system: Spontaneously hypertensive rat; experiment: Rodent Antihypertensive Screen (arterial pressure and heart rate, aortic cannula); format: in vivo, adult spontaneously hypertensive rats (Charles River); conditions: for Duration / Effect on heart rate / Max. decr. in MAP: spontaneously hypertensive rat; for antihypertensive activity compared with corresponding rearranged N-aryl-N'-(4,5-dihydro-1H-imidazol-2-yl) ureas IV: versus corresponding ureas IV
Text: This test evaluates compounds for effects on arterial pressure and heart rate. In this test, the arterial pressure of adult spontaneously hypertensive rats (Charles River) is monitored directly via an aortic cannula. Rats are anesthetized with an inhalation anesthetic (methoxyflurane). The left carotid artery is isolated and cannulated. The tip of the cannula is advanced to the aorta and the cannula is exteriorized behind the neck at the level of the scapula. Animals are placed in individual cages and allowed to recover from the anesthetic and are kept unrestrained. The arterial cannula is connected to the pressure transducer which is attached to the recorder. Heart rate is determined from the arterial pressure recording. The test compounds are administered either orally (p.o.) by gavage or by intraperitoneal (i.p.) injection. The arterial pressure and heart rate are monitored for a minumum of 24 hours. A test compound is considered to be active as an antihypertensive agent if the mean arterial pressure (MAP) indicates a fall of >15 mm of Hg. Each animal serves as his own control. The results of this test employing at least 3 rats per dose level for each compound and performed with various compounds of the present invention are shown in Table I.

[2] = test system: Gastric fistula rat; experiment: acute gastric fistula rat test (antisecretory screen); format: in vivo, Female Sprague-Dawley rats; conditions: for inhibition in vivo at 20 mg/kg: intraduodenal, 20 mg/kg I.D., read-out: % Inhibition of gastric secretion; for ED50: po, 1 hr
Protocol: The principal antisecretory screen is the acute gastric fistula rat test which is carried out as follows: Female Sprague-Dawley rats are used for this study. The weights range from 125-250 gms; however, weights in any given test have a range of ±20 gms. The rats are fasted 24 hours before testing, water is given ad lib. At the time of fasting, the rats are placed in individual cages with wide mesh bottoms. This eliminates the problem of cannibalism and coprophagia. On the day of testing, the rats are weighed beforehand to determine the weight range and to allow for even distribution. Surgery is carried out under light ether anesthesia. As soon as the rat is anesthetized, its teeth are removed using a small pinch pliers. A midline incision is made on the abdomen about 11/2 cm long and the stomach is exposed. If, at this point, the stomach is filled with food or fecal material, the rat is discarded except for orally administered rats. In this case, the stomach contents are gently squeezed into the duodenum. Using a 4-0 polyester fiber suture, a purse string stitch is placed on the fundic portion of the stomach taking care to avoid any blood vessels in the area. A small nick is made into the stomach in the center of the purse string and a cannula, consisting of a small vinyl tube with a flange on one end, is put into the stomach and the purse string is closed tightly around the flange. Immediately following this, the rat is dosed intraduodenally using a volume of 0.5 ml per 100 gm body weight. The abdominal wall and skin are closed simultaneously with three to four 18 mm wound clips. The rat is then placed in a box containing a longitudinal slit which allows the cannula to hang freely and the rat is able to move about unencumbered. At the completion of the procedure, the time is marked 0 minutes. The rat is allowed to stabilize for 30 minutes, at which time the collection tube is discarded and replaced with a clean collection tube to receive the gastric juice. Only a one-hour collection is made for a screening study. In evaluation studies, one- and two-hour collections are made. At the end of the study, the cannula is pulled out and the rat is sacrificed. The gastric contents collected are drained into a centrifuge tube and centrifuged to pack down the sediment. The volume is read and a 1 ml aliquot of the supernatant is put into a beaker containing distilled water and titrated to pH 7 using 0.01 N NaOH. Mean values are determined for volume, titratable acid and total acid output where volume equals total ml of gastric juice minus sediment, titratable acid (mEq/1) equals amount of 0.01 N NaOH needed to titrate the acid to pH 7 times 10 and total acid output equals titratable acid times volume. Results are reported in percent inhibition over control values. In studies using oral administration, the drugs are dosed in a volume of 1 ml per 100 gm body weight one hour before surgery (pretreatment equals 90 minutes). In subcutaneous studies, the drug may be given immediately after the surgical procedure (pretreatment equals 30 minutes) or after the 30-minute stabilization period when the collection tube is changed (pretreatment time equals 0 minutes). The volume used in subcutaneous studies is 0.2 ml per 100 gm body weight.

| SMILES | Duration ([1]; 35 mg/kg p.o.) [h] | Effect on heart rate ([1]; 35 mg/kg p.o.) [beats/min] | Max. decr. in MAP ([1]; 35 mg/kg p.o.) [mm Hg] | inhibition in vivo at 20 mg/kg [2] [%] | ED50 [2] [mg/kg] | antihypertensive activity compared with corresponding rearranged N-aryl-N'-(4,5-dihydro-1H-imidazol-2-yl) ureas IV [1] | Duration ([1]; 100 mg/kg p.o.) [h] | Effect on heart rate ([1]; 100 mg/kg p.o.) [beats/min] | Max. decr. in MAP ([1]; 100 mg/kg p.o.) [mm Hg] |
| --- | --- | --- | --- | --- | --- | --- | --- | --- | --- |
| COc1ccc(NC(=O)N2CCN=C2N)cc1.Cl [Example 20, 2-Amino-4,5-dihydro-N-(4-methoxyphenyl)-1H-imidazole-1carboxamide Monohydrochloride] | 1.0 | -38 | 16 |  |  |  |  |  |  |
| Cc1ccccc1NC(=O)N1CCN=C1N [Example 24, 2-Amino-4,5-dihydro-N-(2-methylphenyl)-1H-imidazole-1-carboxamide Monohydrochloride] |  |  |  | 65 |  |  |  |  |  |
| Cc1ccc(NC(=O)N2CCN=C2N)cc1 [Example 2, 2-Amino-4,5-dihydro-N-(4-methylphenyl)-1H-imidizole-1-carboxamide Monohydrochloride Hydrate (4:1)] | 6.0 | -162 | 54 | 99 | 4.6 | more potent antihypertensive activity |  |  |  |
| Cl.NC1=NCCN1C(=O)Nc1cc(Cl)ccc1Cl [Example 7, 2-Amino-N-(2,5-dichlorophenyl)-4,5-dihydro-1H-imidazole-1carboxamide Monohydrochloride] | 1.0 | -48 | 37 |  |  |  |  |  |  |
| Cl.NC1=NCCN1C(=O)Nc1c(Cl)cccc1Cl [Example 1, 2-Amino-N-(2,6-dichlorophenyl)-4,5-dihydro-1H-imidazole-1-carboxamide Monohydrochloride] | 0.5 | -48 | 32 | 62 |  | significantly less antihypertensive activity |  |  |  |
| COc1ccc(NC(=O)N2CCN=C2N)cc1OC [Example 4, 2-Amino-N-(3,4-dimethoxyphenyl)-4,5-dihydro-1H-imidazole-1-carboxamide Monohydrochloride Hydrate (4:1)] |  |  |  |  |  |  | 11 | -215 | 47 |
| NC1=NCCN1C(=O)Nc1ccccc1 [Example 23, 2-Amino-4,5-dihydro-N-phenyl-1H-imidazole-1-carboxamide Monohydrochloride Hydrate (5:3)] |  |  |  | 92 |  |  |  |  |  |
| Cl.NC1=NCCN1C(=O)Nc1ccccc1C(F)(F)F [Example 25, 2-Amino-4,5-dihydro-N-(2-trifluoromethylphenyl)-1H-imidazole-1-carboxamide Monohydrochloride] | 0.5 | -21 | 32 |  |  |  |  |  |  |
| Cl.NC1=NCCN1C(=O)Nc1ccc(Cl)cc1Cl [Example 9, 2-Amino-N-(2,4-dichlorophenyl)-4,5-dihydro-1H-imidazole-1carboxamide Monohydrochloride] | 2.0 | -49 | 33 | 71 | 14.8 |  |  |  |  |
| NC1=NCCN1C(=O)Nc1ccccc1Cl [Example 3, 2-Amino-N-(2-chlorophenyl)-4,5-dihydro-1H-imidazole-1-carboxamide Monohydrochloride] | 2.0 | -77 | 35 | 82 |  |  |  |  |  |
| Cl.NC1=NCCN1C(=O)Nc1ccc(C(F)(F)F)cc1 [Example 14, 2-Amino-4,5-dihydro-N-(4-trifluoromethylphenyl)-1H-imidazole-1-carboxamide Monohydrochloride] | 5.0 | -98 | 50 | 70 | 35.5 |  |  |  |  |
| NC1=NCCN1C(=O)Nc1cccc(C(F)(F)F)c1 [Example 26, 2-Amino-4,5-dihydro-N-(3-trifluoromethylphenyl)-1H-imidazole-1-carboxamide Monohydrochloride Hemihydrate] | 2.0 | -71 | 24 | 99 |  |  |  |  |  |
| NC1=NCCN1C(=O)Nc1ccc(Cl)cc1 [Example 27, 2-Amino-N-(4-chlorophenyl)-4,5-dihydro-1H-imidazole-1-carboxamide Monohydrochloride Hydrate (17:1)] | 15 | -66 | 41 | 95 | 29.3 | more potent antihypertensive activity |  |  |  |
| Cl.NC1=NCCN1C(=O)Nc1c(Cl)cc(Cl)cc1Cl [Example 12, 2-Amino-4,5-dihydro-N-(2,4,6-trichlorophenyl)-1H-imidazole-1-carboxamide Monohydrochloride] | 0.5 | -39 | 18 | 97 |  |  |  |  |  |
| CCc1cccc(C)c1NC(=O)N1CCN=C1N.Cl [Example 17, 2-Amino-4,5-dihydro-N-(2-ethyl-6-methylphenyl)-1H-imidazole-1carboxamide Monohydrochloride] |  |  |  | 91 | 24.5 |  |  |  |  |
| Cc1cccc(Cl)c1NC(=O)N1CCN=C1N [Example 15, 2-Amino-N-(2-chloro-6-methylphenyl)-4,5-dihydro-1H-imidazole-1-carboxamide Monohydrochloride Hydrate (8:1)] |  |  |  | 77 |  |  |  |  |  |
| Cl.NC1=NCCN1C(=O)Nc1cccc(Cl)c1.O [Example 11, 2-Amino-N-(3-chlorophenyl)-4,5-dihydro-1H-imidazole-1carboxamide Monohydrochloride Monohydrate] | 0.5 | -26 | 20 | 77 | 14.2 |  |  |  |  |
| Cc1cccc(C)c1NC(=O)N1CCN=C1N.Cl [Example 5, 2-Amino-N-(2,6-dimethylphenyl)-4,5-dihydro-1H-imidazole-1-carboxamide Monohydrochloride] | 1.0 | -27 | 23 | 88 |  | significantly less antihypertensive activity |  |  |  |
| COc1cccc(NC(=O)N2CCN=C2N)c1 [Example 19, 2-Amino-4,5-dihydro-N-(3-methoxyphenyl)-1H-imidazole-1carboxamide Monohydrochloride Hydrate (5:1)] |  |  |  | 74 |  |  |  |  |  |
| Cl.NC1=NCCN1C(=O)Nc1cccc(Cl)c1Cl [Example 10, 2-Amino-N-(2,3-dichlorophenyl)-4,5-dihydro-1H-imidazole-1-carboxamide Monohydrochloride] | 1.0 | -66 | 19 | 70 |  |  |  |  |  |
| NC1=NCCN1C(=O)Nc1cc(Cl)cc(Cl)c1 [Example 6, 2-Amino-N-(3,5-dichlorophenyl)-4,5-dihydro-1H-imidazole-1-carboxamide Monohydrochloride Hydrate (16:1)] | 1.0 | -21 | 22 | 75 | 22.3 |  |  |  |  |
| NC1=NCCN1C(=O)Nc1c(Br)cccc1Br [Example 16, 2-Amino-4,5-dihydro-N-(2,6-dibromophenyl)-1H-imidazole-1-carboxamide Monohydrochloride] |  |  |  | 64 |  |  |  |  |  |
